Here are results for one compound from patent US20220396818A1, “POLYNUCLEOTIDE SYNTHESIS METHOD, KIT AND SYSTEM” (Oxford Nanopore Technologies PLC, priority 2019, published 2022).

This experiment concerns 3′-O-azidomethyl group on DNA model. Description: Deprotection of 3′-O-azidomethyl group by TCEP, monitored by extension reaction. The settings on record: 0.2 μM DNA model. The protocol:
Deprotection step (FIG. 26a) was studied on DNA model bearing 3′-O-azidomethyl group that is introduced to DNA by incorporation of 3′-O-azidomethyl-dNTPs by Therminator IX DNA polymerase. Deprotection was carried out by tris(carboxyethyl)phosphine (TCEP) and monitored by extension reaction when mixture of all natural dNTPs is added to the solution of the purified deprotected DNA.
• 1. 2 μl of 10× Thermopol® buffer (20 mM Tris-HCl, 10 mM (NH4)2SO4, 10 mM KCl, 2 mM MgSO4, 0.1% Triton® X-100, pH 8.8, New England BioLabs) was mixed with 12.25 μl of sterile deionized water (ELGA VEOLIA) in 1.5 ml Eppendorf tube. • 2. 1 μl of 10 μM primer (10 pmol, 1 equiv) (SEQ ID NO: 39, FIG. 26i) and 1.5 μl of either 10 μM template-A/G/T/C (15 pmol, 1.5 equiv) (SEQ ID NOS: 40 to 43, FIG. 26i) were added to the reaction mixture. • 3. 3′-O-modified-dTTP/dCTP/dATP/dGTP (2 μl of 100 μM) and MnCl2 (1 μl of 40 mM) were added. • 4. 1.5 μl of Therminator IX DNA polymerase (15 U, New England BioLabs) was then added. • 5. The reaction was incubated for 5 minutes at 37° C. • 6. 4 μL of the sample was taken out and mixed with 0.5 ul of 5 mM dNTP mix and allowed to react for 10 minutes for control reaction. • 7. 40 μL of the 500 mM TCEP in 1M TRIS buffer pH 7.4 was added to the reaction mixture and allowed to react for 10 minutes at 37° C. • 8. […]

As for `O=C(O)CCP(CCC(=O)O)CCC(=O)O` [TCEP, tris(carboxyethyl)phosphine], the “cleavage of 3′-O-azidomethyl group with high efficiency” value (50 mM TCEP) was “not sufficient”. In addition, the “efficiency of cleavage of 3′-O-azidomethyl group” value (300 mM TCEP) is listed as 95%.
